Where two headings read alike, the source gives them in different places.
Tests used:
[1] = system: circulating levels of luteinizing hormone (LH); experiment: Castrated male rat model, circulating luteinizing hormone (LH); format: in vivo; conditions: single intravenous 10 mg/kg dose, castrated male Sprague-Dawley rats, 1 hour after dosing
Source text: Castrated Male Rat Model to Assess the Effect of Compound of Invention on Circulating Levels of Luteinizing Hormone (LH).
In humans and rodents, castration is well-precedented to permit heightened, persistent GnRH signaling and consequent elevation of circulating LH. Thus, a castrated rat model is used to provide a broad index for measurement of LH inhibition as a marker of test compound inhibition of the GnRH signaling pathway.
Castrated adult male Sprague-Dawley (SD) rats (150-175 g) were purchased from Janvier (St Berthevin, France). […] The animals were allowed 2 weeks of postoperative recovery prior to study. Animals were handled on a daily basis. Standard diet and tap water were provided ad libitum. Animal cage litters were changed once a week. On the study day, animals were acclimated to the procedure room for a period of one hour prior to the initiation of the experiment.
Compounds of the invention were formulated as apyrogen water with 90 g/L (2-Hydroxypropyl)-β-CycloDextrin.
After basal sampling (T0) a single dose of compounds of the invention or vehicle was administrated intravenously to rats. Blood was then collected at 60 min post dosing. Blood samples were obtained via tail vein bleed, drawn into EDTA-containing tubes and centrifuged immediately. […] Serum LH levels were determined using radioimmunoassay kit from RIAZEN—Rat LH, Zentech (Liège, Belgium). […]

[2] = system: circulating levels of testosterone; experiment: Gonad-intact adult male rat, circulating testosterone; format: in vivo; conditions: single intravenous 50 mg/kg dose, gonad-intact male Sprague-Dawley rats, over the 210 minute test period (AUC)
human NK1 receptor = human NK1 receptor (Homo sapiens (Human), UniProt P25103); experiment: Human NK1 [3H] substance P binding assay (selectivity)
human NK2 receptor = human NK2 receptor (Homo sapiens (Human), UniProt P21452); experiment: Human NK2 [125I]-Neurokinin A binding assay (selectivity)
hERG channel = hERG channel (Homo sapiens (Human), UniProt Q12809); experiment: hERG inhibition assay (manual patch-clamp, HEK 293 cells)
human NK-3 receptor [3] = target: T1, human NK-3 receptor (Homo sapiens (Human), UniProt P29371); experiment: Aequorin functional assay with human NK-3 receptor (antagonist testing vs NKA); format: cell-based; conditions: inhibition of NKA (3 nM, EC80) response, CHO cells expressing human NK3 receptor and apoaequorin
human NK-3 receptor [4] = target: T1, human NK-3 receptor; experiment: 3H-SB222200 binding competition assay with human NK-3 receptor
Description: ^3H-SB222200 Binding Competition Assay with Human NK-3 Receptor
The membranes were incubated with 5 nM ^3H-SB222200(ARC) in a HEPES 25 mM/NaCl 0.1M/CaCl2 1 mM/MgCl2 5 Mm/BSA 0.5%/Saponin 10 μg/ml buffer at pH 7.4 and various concentrations of compounds of the invention. The amount of ^3H-SB222200 bound to the receptor was determined after filtration by the quantification of membrane associated radioactivity using the TopCount-NXT reader (Packard).

[5] = read-out: NK1 Ki, CHO membranes, 2 nM [3H] substance P
[6] = read-out: NK2 Ki, CHO membranes, 0.1 nM [125I]-Neurokinin A
[7] = Table 6, membranes of CHO cells expressing human NK3 receptor, 5 nM 3H-SB222200, read-out: Ki
[8] = Table 7, human NK-3 receptor, read-out: NK3 Ki
[9] = read-out: NK1 Ki, for the racemate, value measured for the racemate of the numbered compound
[10] = read-out: NK2 Ki, for the racemate, value measured for the racemate of the numbered compound

Chain of human NK1 receptor (P25103 whole entry): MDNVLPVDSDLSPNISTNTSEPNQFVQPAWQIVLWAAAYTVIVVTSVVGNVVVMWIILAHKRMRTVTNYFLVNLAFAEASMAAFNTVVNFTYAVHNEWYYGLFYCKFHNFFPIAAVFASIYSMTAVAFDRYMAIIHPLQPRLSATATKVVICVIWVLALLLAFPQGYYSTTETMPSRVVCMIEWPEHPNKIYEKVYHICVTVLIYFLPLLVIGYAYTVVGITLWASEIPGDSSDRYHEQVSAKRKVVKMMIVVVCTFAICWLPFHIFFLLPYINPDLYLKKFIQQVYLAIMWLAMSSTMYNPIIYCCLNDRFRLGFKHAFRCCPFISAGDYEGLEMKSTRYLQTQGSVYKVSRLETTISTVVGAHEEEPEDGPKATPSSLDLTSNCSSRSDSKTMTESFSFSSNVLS
T1 sequence (P29371 whole entry): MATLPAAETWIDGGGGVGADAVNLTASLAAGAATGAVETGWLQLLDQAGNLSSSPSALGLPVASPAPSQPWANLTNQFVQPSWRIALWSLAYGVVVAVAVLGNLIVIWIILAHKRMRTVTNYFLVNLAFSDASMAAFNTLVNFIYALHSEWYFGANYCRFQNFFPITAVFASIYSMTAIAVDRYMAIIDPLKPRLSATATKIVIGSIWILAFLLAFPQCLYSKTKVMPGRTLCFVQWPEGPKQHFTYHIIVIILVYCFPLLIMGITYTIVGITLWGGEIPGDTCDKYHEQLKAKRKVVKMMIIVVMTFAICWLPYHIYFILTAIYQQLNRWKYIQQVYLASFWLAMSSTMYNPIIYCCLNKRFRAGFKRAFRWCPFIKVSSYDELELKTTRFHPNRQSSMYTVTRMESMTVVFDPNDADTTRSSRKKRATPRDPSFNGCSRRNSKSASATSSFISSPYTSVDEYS
Chain of hERG channel (Q12809 whole entry): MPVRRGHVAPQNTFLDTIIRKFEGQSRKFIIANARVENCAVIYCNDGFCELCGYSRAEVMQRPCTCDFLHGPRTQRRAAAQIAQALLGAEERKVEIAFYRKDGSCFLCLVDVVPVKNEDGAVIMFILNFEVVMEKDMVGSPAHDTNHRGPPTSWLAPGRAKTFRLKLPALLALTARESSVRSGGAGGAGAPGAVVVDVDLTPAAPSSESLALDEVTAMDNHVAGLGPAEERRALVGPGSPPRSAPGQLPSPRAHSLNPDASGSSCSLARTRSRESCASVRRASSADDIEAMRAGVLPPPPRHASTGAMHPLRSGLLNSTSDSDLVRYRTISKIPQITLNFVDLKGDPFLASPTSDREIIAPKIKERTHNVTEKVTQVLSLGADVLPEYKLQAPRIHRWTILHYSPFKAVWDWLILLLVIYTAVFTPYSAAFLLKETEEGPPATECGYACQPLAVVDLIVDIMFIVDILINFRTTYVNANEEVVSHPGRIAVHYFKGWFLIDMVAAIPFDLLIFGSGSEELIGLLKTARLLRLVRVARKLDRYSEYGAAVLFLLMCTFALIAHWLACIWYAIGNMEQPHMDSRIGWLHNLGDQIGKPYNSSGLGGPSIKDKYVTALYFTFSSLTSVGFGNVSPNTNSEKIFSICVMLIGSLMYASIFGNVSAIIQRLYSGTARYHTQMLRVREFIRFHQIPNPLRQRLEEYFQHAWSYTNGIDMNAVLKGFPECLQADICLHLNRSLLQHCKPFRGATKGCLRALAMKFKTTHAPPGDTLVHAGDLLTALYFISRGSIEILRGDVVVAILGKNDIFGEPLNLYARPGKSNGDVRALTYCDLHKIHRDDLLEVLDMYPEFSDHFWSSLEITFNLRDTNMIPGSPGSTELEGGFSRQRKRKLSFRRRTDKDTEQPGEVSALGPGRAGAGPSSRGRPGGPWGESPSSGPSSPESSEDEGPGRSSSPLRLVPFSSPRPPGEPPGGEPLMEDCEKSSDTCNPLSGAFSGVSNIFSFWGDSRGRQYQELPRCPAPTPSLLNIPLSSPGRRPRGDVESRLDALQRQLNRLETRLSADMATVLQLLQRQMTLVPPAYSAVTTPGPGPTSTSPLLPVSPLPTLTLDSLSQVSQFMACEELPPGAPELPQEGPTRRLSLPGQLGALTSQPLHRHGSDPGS
Chain of human NK2 receptor (P21452 whole entry): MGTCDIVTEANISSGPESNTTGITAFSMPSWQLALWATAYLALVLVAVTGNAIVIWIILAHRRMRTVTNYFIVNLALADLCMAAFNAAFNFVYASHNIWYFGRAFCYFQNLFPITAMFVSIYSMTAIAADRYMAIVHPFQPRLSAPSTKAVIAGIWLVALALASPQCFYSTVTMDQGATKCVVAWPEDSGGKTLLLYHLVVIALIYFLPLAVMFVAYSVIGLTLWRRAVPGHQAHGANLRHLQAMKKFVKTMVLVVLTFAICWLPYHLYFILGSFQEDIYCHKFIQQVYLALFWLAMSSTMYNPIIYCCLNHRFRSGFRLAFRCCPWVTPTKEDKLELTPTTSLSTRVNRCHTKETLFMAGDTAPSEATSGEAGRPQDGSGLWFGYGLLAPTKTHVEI

Compound	IC50 (hERG channel)	IC50 (human NK-3 receptor [3])	Ki (human NK-3 receptor [4]; [7])	further results
Cc1nc(-c2nnc3n2CCN(C(=O)c2ccc(-c4cccs4)cc2)[C@@H]3C)cs1 [Compound 1, (R)-(8-methyl-3-(2-methylthiazol-4-yl)-5,6-dihydro-[1,2,4]triazolo[4,3-a]pyrazin-7(8H)-yl) (4-(thiophen-2-yl)phenyl)methanone]	> 30000 nM	–	–	circulating LH levels [1]: significantly suppressed circulating LH levels; plasma testosterone levels [2]: significantly suppressed plasma testosterone levels; Ki (human NK1 receptor; [5]): 12700 nM; Ki (human NK2 receptor; [6]): 14000 nM
Cc1nc(-c2nnc3n2CCN(C(=O)c2ccc(-c4cccs4)cc2)C3)cs1 [Compound 3, (3-(2-methylthiazol-4-yl)-5,6-dihydro-[1,2,4]triazolo[4,3-a]pyrazin-7(8H)-yl)(4-(thiophen-2-yl)phenyl)methanone]	26000 nM	83 nM	83 nM	Ki (human NK-3 receptor [4]; [8]): 83 nM; Ki (human NK1 receptor; [5]): > 10000 nM; Ki (human NK2 receptor; [6]): > 10000 nM
O=C(c1ccc(-c2cccs2)cc1)N1CCn2c(nnc2-c2csc(C(F)(F)F)n2)C1 [Compound 4, (4-(thiophen-2-yl)phenyl)(3-(2-(trifluoromethyl)thiazol-4-yl)-5,6-dihydro-[1,2,4]triazolo[4,3-a]pyrazin-7(8H)-yl)methanone]	> 30000 nM	50 nM	56 nM	–
Cc1nc(-c2nnc3n2CCN(C(=O)c2ccc(-c4cccs4)cc2)[C@@H]3C)co1 [Compound 11, (R)-(8-methyl-3-(2-methyloxazol-4-yl)-5,6-dihydro-[1,2,4]triazolo[4,3-a]pyrazin-7(8H)-yl)(4-(thiophen-2-yl)phenyl)methanone]	> 30000 nM	34 nM	44 nM	Ki (human NK-3 receptor [4]; [8]): 44 nM; Ki (human NK1 receptor; [5]): > 10000 nM; Ki (human NK2 receptor; [6]): > 10000 nM
Cc1nc(-c2nnc3n2CCN(C(=O)c2ccc(-c4cccs4)cc2)[C@@H]3C)c(C)s1 [Compound 16, (R)-(3-(2,5-dimethylthiazol-4-yl)-8-methyl-5,6-dihydro-[1,2,4]triazolo[4,3-a]pyrazin-7(8H)-yl)(4-(thiophen-2-yl)phenyl)methanone]	–	30 nM	32 nM	–
C[C@@H]1c2nnc(-c3csc(N(C)C)n3)n2CCN1C(=O)c1ccc(-c2cccs2)cc1 [Compound 17, (R)-(3-(2-(dimethylamino)thiazol-4-yl)-8-methyl-5,6-dihydro-[1,2,4]triazolo[4,3-a]pyrazin-7(8H)-yl)(4-(thiophen-2-yl)phenyl)methanone]	–	7 nM	7 nM	Ki (human NK-3 receptor [4]; [8]): 7 nM; Ki (human NK1 receptor; [9]): 6060 nM; Ki (human NK2 receptor; [10]): 9950 nM
CC(C)c1nc(-c2nnc3n2CCN(C(=O)c2ccc(-c4cccs4)cc2)C3)cs1 [Compound 18, (3-(2-isopropylthiazol-4-yl)-5,6-dihydro-[1,2,4]triazolo[4,3-a]pyrazin-7(8H)-yl)(4-(thiophen-2-yl)phenyl)methanone]	–	10 nM	20 nM	–
Cc1csc(-c2nnc3n2CCN(C(=O)c2ccc(-c4cccs4)cc2)[C@@H]3C)n1 [Compound 19, (R)-(8-methyl-3-(4-methylthiazol-2-yl)-5,6-dihydro-[1,2,4]triazolo[4,3-a]pyrazin-7(8H)-yl)(4-(thiophen-2-yl)phenyl)methanone]	–	8 nM	6 nM	circulating LH levels [1]: significantly suppressed circulating LH levels
Cc1csc(-c2nnc3n2CCN(C(=O)c2ccc(-c4ccccc4)cc2)[C@@H]3C)n1 [Compound 20, (R)-[1,1′-biphenyl]-4-yl(8-methyl-3-(4-methylthiazol-2-yl)-5,6-dihydro-[1,2,4]triazolo[4,3-a]pyrazin-7(8H)-yl)methanone]	–	11 nM	12 nM	–
Cc1csc(-c2nnc3n2CCN(C(=O)c2ccc(-c4ccccc4)cc2)C3)n1 [Compound 21, [1,1′-biphenyl]-4-yl(3-(4-methylthiazol-2-yl)-5,6-dihydro-[1,2,4]triazolo[4,3-a]pyrazin-7(8H)-yl)methanone]	–	33 nM	38 nM	–
Cc1nc(-c2nnc3n2CCN(C(=O)c2ccc(-c4cccs4)cc2)[C@@H]3C)sc1C [Compound 22, (R)-(3-(4,5-dimethylthiazol-2-yl)-8-methyl-5,6-dihydro-[1,2,4]triazolo[4,3-a]pyrazin-7(8H)-yl)(4-(thiophen-2-yl)phenyl)methanone]	12000 nM	21 nM	21 nM	–
Cc1noc(-c2nnc3n2CCN(C(=O)c2ccc(-c4cccs4)cc2)[C@@H]3C)n1 [Compound 23, (R)-(8-methyl-3-(3-methyl-1,2,4-oxadiazol-5-yl)-5,6-dihydro-[1,2,4]triazolo[4,3-a]pyrazin-7(8H)-yl)(4-(thiophen-2-yl)phenyl)methanone]	–	–	–	inhibition at 10 µM (human NK1 receptor; read-out: NK1 % inhibition at 10 μM, for the racemate): < 10%; Ki (human NK1 receptor; [9]): > 10000 nM; inhibition at 10 µM (human NK2 receptor; read-out: NK2 % inhibition at 10 μM, for the racemate): < 25%; Ki (human NK2 receptor; [10]): > 10000 nM
CC(C)c1nsc(-c2nnc3n2CCN(C(=O)c2ccc(-c4cccs4)cc2)[C@@H]3C)n1 [Compound 25, (R)-(3-(3-isopropyl-1,2,4-thiadiazol-5-yl)-8-methyl-5,6-dihydro-[1,2,4]triazolo[4,3-a]pyrazin-7(8H)-yl)(4-(thiophen-2-yl)phenyl)methanone]	–	3 nM	3 nM	–
Cc1coc(-c2nnc3n2CCN(C(=O)c2ccc(-c4ccccc4)cc2)[C@@H]3C)n1 [Compound 27, (R)-[1,1′-biphenyl]-4-yl(8-methyl-3-(4-methyloxazol-2-yl)-5,6-dihydro-[1,2,4]triazolo[4,3-a]pyrazin-7(8H)-yl)methanone]	–	51 nM	51 nM	–
Cc1cc(-c2nnc3n2CCN(C(=O)c2ccc(-c4cccs4)cc2)[C@@H]3C)n(C)n1 [Compound 28, (R)-(3-(1,3-dimethyl-1H-pyrazol-5-yl)-8-methyl-5,6-dihydro-[1,2,4]triazolo[4,3-a]pyrazin-7(8H)-yl)(4-(thiophen-2-yl)phenyl)methanone]	–	37 nM	68 nM	–
Cc1cccc(-c2nnc3n2CCN(C(=O)c2ccc(-c4ccccc4)cc2)[C@@H]3C)n1 [Compound 29, (R)-[1,1′-biphenyl]-4-yl(8-methyl-3-(6-methylpyridin-2-yl)-5,6-dihydro-[1,2,4]triazolo[4,3-a]pyrazin-7(8H)-yl)methanone]	–	18 nM	23 nM	–
Cc1cccc(-c2nnc3n2CCN(C(=O)c2ccc(-c4cccs4)cc2)[C@@H]3C)n1 [Compound 30, (R)-(8-methyl-3-(6-methylpyridin-2-yl)-5,6-dihydro-[1,2,4]triazolo[4,3-a]pyrazin-7(8H)-yl)(4-(thiophen-2-yl)phenyl)methanone]	–	11 nM	10 nM	Ki (human NK-3 receptor [4]; [8]): 10 nM; Ki (human NK1 receptor; [5]): 17200 nM; Ki (human NK2 receptor; [6]): 5930 nM
C[C@@H]1c2nnc(-c3cccc(O)n3)n2CCN1C(=O)c1ccc(-c2cccs2)cc1 [Compound 31, (R)-(3-(6-hydroxypyridin-2-yl)-8-methyl-5,6-dihydro-[1,2,4]triazolo[4,3-a]pyrazin-7(8H)-yl)(4-(thiophen-2-yl)phenyl)methanone]	20000 nM	18 nM	22 nM	Ki (human NK-3 receptor [4]; [8]): 22 nM; Ki (human NK1 receptor; [5]): > 10000 nM; Ki (human NK2 receptor; [6]): > 10000 nM
